{"source": "patent US20240199572A1", "about": "“COMPOUNDS, COMPOSITIONS, AND METHODS FOR TREATING TYPE 2 DIABETES AND DEMENTIA” (THE BOARD OF TRUSTEES OF THE UNIVERSITY OF ILLINOIS, priority 2021, published 2024)", "key": {"[1]": {"system": "Nuclear hormone (NHR) receptors", "test": "All β-gal nuclear hormone receptor (NHR) screens", "assay_type": "cell-based", "procedure": "Receptor Binding Assays. Nuclear hormone (NHR) assays were performed by DiscoverX (Fremont, CA) on their NHR-Scan platform of cell-based protein-protein interaction assays. This platform uses a […] reporter that activates upon interaction of full-length receptor protein with steroid coactivator receptor peptides. In agonist mode, activity of CL2-57 at 10 μM was compared to maximal activity of published positive control agonists; in antagonist mode, reduction in activity with 10 μM CL2-57 from that observed at […] of published agonists was quantified."}, "PPARγ": {"molecular_target": "T1, PPARγ (Homo sapiens, UniProt P37231)", "T1 construct": "purchased Thermo Fisher Scientific", "T1 sequence (P37231 232-505 limits assumed)": "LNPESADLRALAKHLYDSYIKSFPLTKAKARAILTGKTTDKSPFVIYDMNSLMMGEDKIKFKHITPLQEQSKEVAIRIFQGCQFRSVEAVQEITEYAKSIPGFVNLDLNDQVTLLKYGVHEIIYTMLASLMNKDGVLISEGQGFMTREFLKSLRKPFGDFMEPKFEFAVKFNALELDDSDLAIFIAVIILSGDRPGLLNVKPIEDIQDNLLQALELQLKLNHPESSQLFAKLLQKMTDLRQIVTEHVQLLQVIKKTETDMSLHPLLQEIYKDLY", "test": "LanthaScreen TR-FRET coactivator assay PPARγ (antagonism of pioglitazone)", "assay_type": "biochemical", "procedure": "TR-FRET Receptor Binding Assays. LanthaScreen” TR-FRET coactivator assay kits for LXRβ (Thermo Fisher Scientific) and PPARγ (Thermo Fisher Scientific) were performed according to manufacturer instructions using low-binding black 384-well plates and Synergy Neo2 plate reader. For the PPARγ assay, standardization was first performed with control agonist (pioglitazone), then run in two antagonist assays: dose-response of pioglitazone with or without a single concentration of CL2-57, and dose-response of CL2-57 cotreated with a single concentration (500 nM) of pioglitazone. Each compound dose was performed in quadruplicate on each plate, and each experiment was performed in triplicate."}, "LXRβ": {"molecular_target": "T2, LXRβ (Homo sapiens, UniProt P55055)", "T2 construct": "purchased Thermo Fisher Scientific", "T2 sequence (P55055 212-460 limits assumed)": "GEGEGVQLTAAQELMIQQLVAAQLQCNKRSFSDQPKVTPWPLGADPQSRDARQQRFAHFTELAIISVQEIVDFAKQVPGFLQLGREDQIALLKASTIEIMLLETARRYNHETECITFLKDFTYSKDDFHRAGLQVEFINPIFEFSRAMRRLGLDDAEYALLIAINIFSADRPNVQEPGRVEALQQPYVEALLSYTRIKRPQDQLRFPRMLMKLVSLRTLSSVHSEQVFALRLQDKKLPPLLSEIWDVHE", "test": "LanthaScreen TR-FRET coactivator assay LXRβ", "assay_type": "biochemical", "method": "TR-FRET Receptor Binding Assays. LanthaScreen” TR-FRET coactivator assay kits for LXRβ (Thermo Fisher Scientific) and PPARγ (Thermo Fisher Scientific) were performed according to manufacturer instructions using low-binding black 384-well plates and Synergy Neo2 plate reader. […] Each compound dose was performed in quadruplicate on each plate, and each experiment was performed in triplicate."}, "5×FAD mice": {"system": "5×FAD mice", "test": "5×FAD mice treated with CL3-3", "assay_type": "in vivo, mouse", "conditions": "female 5×FAD mice, 10 mg/kg PO daily, 10 days", "procedure": "To evaluate preclinical efficacy, CL3-3 was studied in 5×FAD mice. […] Female 5×FAD mice (JAX) at 16 weeks of age were treated for 10 days with either CL3-3 (10 mg/kg PO gavage daily) or vehicle. Upon completion of treatment, mouse whole brain hemispheres were analyzed for mRNA expression levels of pro-inflammatory markers including CCL2, CCL3, CCL5 CXCL10, IL-6, COX2 and NOS2. Plasma from the same mice was analyzed."}, "ABCA1 [2]": {"system": "ABCA1", "test": "ABCA1 firefly reporter assay in CCF-001 cells", "assay_type": "cell-based", "conditions": "ABCA1 firefly reporter assay in CCF-001 cells (Table 8)"}, "ABCA1 [3]": {"system": "ABCA1", "test": "ABCA1-linked luciferase assay in HepG2 cells", "assay_type": "cell-based", "conditions": "Homo sapiens; HepG2 liver cells; Example 2, compounds active in ABCA1-Luc assay; read-out: EC50 in HepG2 liver cells", "procedure": "Luciferase. HepG2 cells (RRID:CVCL 0027) purchased from ATCC and used without further validation were stably transfected with pGreenFire1-LXRE-in-ABCA1 plasmid, which contains the ABCA1 promoter sequence linked to a luciferase response element, then selected over multiple generations with puromycin and frozen in liquid N2. For assays, transfected cells were plated 24 hours in medium (Gibco) containing charcoal-stripped serum (Gemini), followed by a 24-hour treatment. Cells were lysed with passive lysis buffer (Promega), frozen at −80° C. for 15 minutes, and shaken at room temperature for 2 hours before quantification with luciferase assay system (Promega) on a Synergy Neo2 plate reader."}, "E3/4FAD mice": {"system": "E3/4FAD mice", "test": "E3/4FAD (EFAD) mice treated with CL3-3", "assay_type": "in vivo, mouse", "procedure": "A longer-term study was conducted in EFAD mice, which express the same five human AD mutations as 5×FAD mice and have also undergone targeted replacement of the mouse Apoe gene with one of the human APOE alleles: ε2, ε3, or ε4. In this study, EFAD mice with heterozygous ε3/ε4 alleles (E3/4FAD) were treated from 4 months of age until 6 months of age with CL3-3 (100 mg/kg/day in hydrogel replacement of drinking water) or vehicle.\nMultiple readouts of AD-related pathology were conducted with subsets of these mice. Brain regions were first analyzed via ELISA for levels of soluble, oligomeric Aβ (oAβ), which is hypothesized to be the toxic form of amyloid that underlies downstream pathology and clinical presentation associated with AD. In E3/4FAD mice, oAβ levels decreased in the hippocampus in male mice and in the cerebral cortex in female mice. Treatment with CL3-3 also was synaptoprotective in cerebral cortex regions, particularly in male mice. Expression of synaptic proteins drebrin and PSD95 were increased in male E3/4FAD mice treated with CL3-3, as determined by western blot analysis.\nThe remaining subset of brain hemispheres from the treated E3/4FAD mice were fixed and analyzed by staining with thioflavin S (Thio-S). Thio-S is a fluorescent dye that binds to abnormally folded protein aggregates (i.e., amyloid)."}, "ABCA1 mRNA": {"system": "ABCA1 mRNA", "test": "ABCA1 mRNA - HepG2 (qRT-PCR)", "assay_type": "cell-based, human", "conditions": "Homo sapiens; ABCA1 mRNA-HepG2 assay (Table 7)", "description": "qRT-PCR. For cell samples, treated cells were lysed with RLT plus lysis buffer (Qiagen). RNA was isolated with Qiagen RNEASY® Plus columns per manufacturer instructions, then reverse-transcribed to cDNA using […]® III Reverse Transcriptase (200 U/μL, Invitrogen) per supplier protocol. qPCR experiments were either performed with TAQMAN® gene expression master mix (Invitrogen) on a StepOne™ qPCR instrument or with […]® SYBR® Green SuperMix (Quanta Biosciences) on CFX Connect™ Real-Time PCR Detection System (BioRad), with fold-change quantified by ΔΔCt. For animal samples, 100 mg tissue was homogenized in 1 mL acid-guanidinium-phenol based reagent sold under the tradename TRIZOL® (Ambion), mixed vigorously in chloroform, and separated by centrifugation. Aqueous layer containing RNA was added to Qiagen RNEASY® Plus column; remaining stops were as described above for cell lysates."}}, "data": [{"molecule": "CCOc1ccc(N(C)S(=O)(=O)c2cc(Cl)sc2C(=O)Nc2cccc(C(=O)O)c2)cc1OCC", "note": "[CL2-129, 3-(5-Chloro-3-(N-(3,4-diethoxyphenyl)-N-methylsulfamoyl)thiophene-2-carboxamido)benzoic acid]", "values": [{"measurement": "Activity in all of the β-gal screens", "setting": "[1]", "result": "inactive"}, {"measurement": "Activity in PPARγ TR-FRET binding assay", "setting": "PPARγ", "result": "inactive"}, {"measurement": "Activity in LXRβ TR-FRET binding assay", "setting": "LXRβ", "result": "inactive"}]}, {"molecule": "CCOC(=O)c1cc(Cl)cc(NC(=O)c2sc(Cl)cc2S(=O)(=O)N(C)c2ccc(OCC)c(OC)c2)c1", "note": "[CL3-3, Ethyl 3-chloro-5-(5-chloro-3-(N-(4-ethoxy-3-methoxyphenyl)-N-methylsulfamoyl)thiophene-2-carboxamido) benzoate]", "values": [{"measurement": "Brain mRNA levels of inflammatory markers (CCL2, CCL3, CCL5, CXCL10, IL-6, COX2, NOS2)", "setting": "5×FAD mice", "result": "reduced"}, {"measurement": "Circulating TG levels", "setting": "5×FAD mice", "result": "not significantly altered"}, {"measurement": "EC50", "setting": "ABCA1 [2]", "result": 99, "unit": "nM"}, {"measurement": "EC50", "setting": "ABCA1 [3]", "result": 300, "unit": "nM"}, {"measurement": "% area stained by Thio-S", "setting": "E3/4FAD mice; all measured brain regions, males and females", "result": "decreased"}, {"measurement": "Expression of synaptic proteins drebrin and PSD95", "setting": "E3/4FAD mice; male E3/4FAD mice, western blot", "result": "increased"}, {"measurement": "EC50", "setting": "ABCA1 mRNA", "result": 300, "unit": "nM"}]}]}
